Experimental data from patent US10081634B2, “Heterocyclic compound” (Daewoong Pharmaceutical Co., Ltd., priority 2014, dated 2018).
Like-named read-outs stand apart in the source and are kept apart here.

Columns and labels:
NCI-H460 cells = experiment: Cancer cell growth inhibition experiment (MTT assay); format: cell-based; settings: Homo sapiens; NCI-H460 lung cancer cell line; 48 hours treatment; MTT cell viability
Protocol: NCI-H460 cells, lung cancer cell lines, were cultured in 5% CO2, 37° C. incubator using a flask for 75 cm^2 tissue culture. 96-well plates were used for the evaluation. These were prepared by differently applying at concentrations in the range of 6,000 to 12,000 cells/well according to the growth rate of the cell lines. The medium containing 5% FBS were dispensed in 200 μL/well and used. The medium were cultured for 24 hours. After confirming the cell status and dispensing form of a 96-well plate under a microscope, they were used for subsequent experiments. The compounds were evaluated at concentrations of 100, 30, 10, 3, 1, 0.3, 0.03, 0.01 μM. After removing the existing medium, the compounds with various concentrations were treated in an amount of 200 μL/well. The compounds-treated plates were further cultured for 48 hours, and the cell viabilities were measured by MTT assay to calculate IC50 values.
% Inhibition and IC50 values of the respective compounds were calculated and analyzed using Sigma Plot 8.0. The case where the derived IC50 is 5 μM or less is represented by “A”, the case where the IC50 is 5 to 30 μM is represented by “B”, and the case where the IC50 is 30 μM or higher is represented by “C”.

[1] = biological target: T1, PRS (prolyl-tRNA synthetase) (Homo sapiens, UniProt P07814); experiment: In vitro PRS enzyme activity inhibition experiment ([3H]proline, liquid scintillation); format: biochemical
T1 construct: the portion corresponding to PRS in cDNA of EPRS was subcloned; made in house
T1 sequence (P07814 1007-1512 limits assumed): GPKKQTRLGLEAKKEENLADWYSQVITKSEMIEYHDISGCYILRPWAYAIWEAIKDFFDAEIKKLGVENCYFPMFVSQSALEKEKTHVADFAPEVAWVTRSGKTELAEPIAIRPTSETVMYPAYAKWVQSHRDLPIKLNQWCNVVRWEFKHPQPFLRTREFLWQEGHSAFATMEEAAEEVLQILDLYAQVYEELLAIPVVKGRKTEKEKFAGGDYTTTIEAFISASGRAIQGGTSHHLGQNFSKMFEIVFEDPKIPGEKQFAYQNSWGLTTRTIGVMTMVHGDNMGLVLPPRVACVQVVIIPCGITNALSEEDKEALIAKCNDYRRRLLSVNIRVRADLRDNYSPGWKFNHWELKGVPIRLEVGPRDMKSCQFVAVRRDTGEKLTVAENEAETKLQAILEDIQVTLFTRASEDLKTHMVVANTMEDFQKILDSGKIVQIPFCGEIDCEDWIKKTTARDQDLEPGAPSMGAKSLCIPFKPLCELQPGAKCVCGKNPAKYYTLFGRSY
Protocol: In order to confirm the biological activities of the compounds prepared in Examples, % inhibition or IC50 values of PRS enzyme ([…]) activities were calculated.
Specifically, the portion corresponding to PRS in cDNA of EPRS was subcloned, and the obtained high-purity PRS protein was purified and used in the experiment. The compounds (1 μM) prepared in Examples were added into the reaction buffer (20 mM KPO4 (pH 7.4), 6 mM MgAc, 5 mM ATP, […] tRNA, 0.5 mM DTT, 20 mCi[^3H]proline (1 mCi/mL)) and allowed to react at 37° C. for 5 to 10 minutes. The reaction was terminated with 3M paper that was previously dried by addition of 5% TCA. The radioactivity was measured using a liquid scintillation counter.
IC50 values of the respective compounds were calculated and analyzed using Microsoft Excel or Sigma Plot 8.0. In Table 1, the results are divided into A, B and C according to the range of IC50. The case where the derived IC50 is 100 nM or less is represented by “A”, the case where the IC50 is 100 to 500 nM is represented by “B”, and the case where the IC50 is 500 nM or higher is represented by “C”.

[2] = purified PRS protein subcloned from EPRS cDNA, 37° C., 5 to 10 minutes, read-out: PRS IC50

Which results are given for CCc1nc2cc(Cl)c(Cl)cc2n1CC(=O)C[C@H]1NCCC[C@@H]1O [Example 48, 1-(5,6-dichloro-2-ethyl-1H-benzo[d]imidazol-1-yl)-3-((2R,3S)-3-hydroxypiperidin-2-yl)propan-2-one]?
IC50 (NCI-H460 cells): ≥ 30 µM; IC50 [1, 2]: > 500 nM

How did the IC50 (NCI-H460 cells) turn out when N#Cc1cnc2c(c1)ncn2CC(=O)C[C@H]1NCCC[C@@H]1O [Example 38, 3-(3-((2R,3S)-3-hydroxypiperidin-2-yl)-2-oxopropyl)-3H-imidazo[4,5-b]pyridine-6-carbonitrile] was run?
The IC50 was at least 30 µM.

And the IC50 [1, 2]?
The IC50 was 100 to 500 nM.

Which IC50 (NCI-H460 cells) does the source give for O=C(C[C@H]1NCCC[C@@H]1O)Cn1cnc2cc(Cl)ccc21 [Example 2, 1-(5-chloro-1H-benzo[d]imidazol-1-yl)-3-((2R,3S)-3-hydroxypiperidin-2-yl)propan-2-one] here?
The IC50 was 5 to 30 µM.

What about the IC50 [1, 2] of the same compound?
Its IC50 is under 100 nM.

With Cc1c(Br)cnc2c1ncn2CC(=O)C[C@H]1NCCC[C@@H]1O [Example 40, 1-(6-bromo-7-methyl-3H-imidazo[4,5-b]pyridin-3-yl)-3-((2R,3S)-3-hydroxypiperidin-2-yl)propan-2-one] as the compound, how does the IC50 (NCI-H460 cells) read?
Its IC50 is at most 5 µM.

What about the IC50 [1, 2] of the same compound?
The IC50 was under 100 nM.

How did the IC50 (NCI-H460 cells) turn out when NCc1nc2cc(Cl)c(Cl)cc2n1CC(=O)C[C@H]1NCCC[C@@H]1O [Example 52, 1-(2-(aminomethyl)-5,6-dichloro-1H-benzo[d]imidazol-1-yl)-3-((2R,3S)-3-hydroxypiperidin-2-yl)propan-2-one] was run?
The IC50 was at least 30 µM.

And the IC50 [1, 2]?
The IC50 was over 500 nM.

What does the source list for O=C(C[C@H]1NCCC[C@@H]1O)Cn1cnc2c(Cl)c(Br)cnc21 [Example 42, 1-(6-bromo-7-chloro-3H-imidazo[4,5-b]pyridin-3-yl)-3-((2R,3S)-3-hydroxypiperidin-2-yl)propan-2-one]?
IC50 (NCI-H460 cells): ≤ 5 µM; IC50 [1]: < 100 nM

Which IC50 (NCI-H460 cells) does the source give for Cc1c(Cl)ccc2ncn(CC(=O)C[C@H]3NCCC[C@@H]3O)c12 [Example 28, 1-(6-chloro-7-methyl-1H-benzo[d]imidazol-1-yl)-3-((2R,3S)-3-hydroxypiperidin-2-yl)propan-2-one] here?
The IC50 was at least 30 µM.

What about the IC50 [1, 2] of the same compound?
Its IC50 is under 100 nM.

With O=C(C[C@H]1NCCC[C@@H]1O)Cn1cnc2cc(Cl)c(Cl)cc21 [Example 25, 1-(5,6-dichloro-1H-benzo[d]imidazol-1-yl)-3-((2R,3S)-3-hydroxypiperidin-2-yl)propan-2-one] as the compound, how does the IC50 (NCI-H460 cells) read?
The IC50 was at most 5 µM.

And the IC50 [1, 2]?
The IC50 was under 100 nM.

With Cc1c(Br)ccc2c1ncn2CC(=O)C[C@H]1NCCC[C@@H]1O [Example 15, 1-(5-bromo-4-methyl-1H-benzo[d]imidazol-1-yl)-3-((2R,3S)-3-hydroxypiperidin-2-yl)propan-2-one] as the compound, how does the IC50 (NCI-H460 cells) read?
The IC50 was at most 5 µM.

And the IC50 [1, 2]?
The IC50 was under 100 nM.

For O=C(C[C@H]1NCCC[C@@H]1O)Cn1cnc2c(F)c(F)ccc21 [Example 11, 1-(4,5-difluoro-1H-benzo[d]imidazol-1-yl)-3-((2R,3S)-3-hydroxypiperidin-2-yl)propan-2-one], which IC50 (NCI-H460 cells) is on record?
Its IC50 is 5 to 30 µM.

And the IC50 [1, 2]?
Its IC50 is 100 to 500 nM.

What does the source list for O=C(C[C@H]1NCCC[C@@H]1O)Cn1cnc2ccc(C(F)(F)F)cc21 [Example 7, 1-((2R,3S)-3-hydroxypiperidin-2-yl)-3-(6-(trifluoromethyl)-1H-benzo[d]imidazol-1-yl)propan-2-one]?
IC50 (NCI-H460 cells): 5 to 30 µM; IC50 [1, 2]: < 100 nM

Which results are given for Cc1c(Br)cnc2c1ncn2CC(O)C[C@H]1NCCC[C@@H]1O (stereo partly drawn) [Example 78, (2R,3S)-2-(3-(6-bromo-7-methyl-3H-imidazo[4,5-b]pyridin-3-yl)-2-hydroxypropyl)piperidin-3-ol]?
IC50 (NCI-H460 cells): ≥ 30 µM; IC50 [1, 2]: < 100 nM

Which IC50 (NCI-H460 cells) does the source give for O=C(C[C@H]1NCCC[C@@H]1O)Cn1cnc2cc(Br)c(Br)cc21 [Example 27, 1-(5,6-dibromo-1H-benzo[d]imidazol-1-yl)-3-((2R,3S)-3-hydroxypiperidin-2-yl)propan-2-one] here?
The IC50 was 5 to 30 µM.

What about the IC50 [1, 2] of the same compound?
Its IC50 is under 100 nM.

Which IC50 (NCI-H460 cells) does the source give for O=C(C[C@H]1NCCC[C@@H]1O)Cn1nnc2cc(Cl)ccc21 [Example 99, 1-(5-chloro-1H-benzo[d][1,2,3]triazol-1-yl)-3-((2R,3S)-3-hydroxypiperidin-2-yl)propan-2-one] here?
The IC50 was at least 30 µM.

What about the IC50 [1, 2] of the same compound?
Its IC50 is 100 to 500 nM.
